Source: PubChem BioAssay AID651801 (Broad Institute, 2012)
Active and inactive are the calls of the source.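 Rule for the calls: active = signal falling with dose and AC50 at most twice the top valid tested dose; inconclusive = flat fit with inhibition of 30 to 70%, or poor fit; inactive = the rest, plus effects in the rising direction.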

Target: Kelch-like ECH-associated protein 1 (Homo sapiens) (UniProt Q14145)
Assay: Keap1-Nrf2 protein-protein interaction inhibitors, dose response, biochemical, fluorescence polarization, dry powder, set 2 (AID 651801)
Conditions: Keap1 Kelch/FITC-Nrf2 peptide fluorescence polarization

Kelch-like ECH-associated protein 1 (Homo sapiens), sequence (Q14145 whole entry, looked up): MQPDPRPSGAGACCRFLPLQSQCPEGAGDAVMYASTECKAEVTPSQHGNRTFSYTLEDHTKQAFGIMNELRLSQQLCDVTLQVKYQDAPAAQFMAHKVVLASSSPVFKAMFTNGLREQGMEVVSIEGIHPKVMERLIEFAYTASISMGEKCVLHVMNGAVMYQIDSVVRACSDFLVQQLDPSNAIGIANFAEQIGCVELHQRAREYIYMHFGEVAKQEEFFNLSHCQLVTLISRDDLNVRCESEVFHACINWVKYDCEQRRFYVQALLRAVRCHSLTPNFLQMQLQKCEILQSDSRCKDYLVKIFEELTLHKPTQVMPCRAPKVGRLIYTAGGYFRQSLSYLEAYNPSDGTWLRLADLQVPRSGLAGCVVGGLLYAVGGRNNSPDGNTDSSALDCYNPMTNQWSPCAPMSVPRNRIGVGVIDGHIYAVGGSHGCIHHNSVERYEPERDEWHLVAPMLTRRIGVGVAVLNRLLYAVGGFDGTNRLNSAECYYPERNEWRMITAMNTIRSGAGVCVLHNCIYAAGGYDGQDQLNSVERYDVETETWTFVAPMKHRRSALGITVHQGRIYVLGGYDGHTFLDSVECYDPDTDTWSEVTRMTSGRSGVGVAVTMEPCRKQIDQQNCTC

| Structure (SMILES) | activity change, negative = inhibition (at 50 µM (top of the series)) | other results |
| --- | --- | --- |
| O=C(O)c1ccccc1C(=O)NC[C@@H]1c2ccccc2CCN1C(=O)[C@@H]1CCCC[C@@H]1C(=O)O | inactive | – |
| O=C1c2ccccc2C(=O)N1CC1c2ccccc2CCN1C(=O)Cc1ccccc1 (stereo not drawn) | – | activity change, negative = inhibition (at 12 µM (top of the series)): inactive |
| O=C(NCCO)c1ccccc1C(=O)NC[C@@H]1c2ccccc2CCN1C(=O)C1CCCCC1C(=O)O (stereo partly drawn) | – | AC50: > 100 µM (inactive) |
| O=C(NC[C@@H]1c2ccccc2CCN1C(=O)[C@@H]1CCCC[C@@H]1C(=O)O)c1ccc(CN2CCOCC2)cc1 | – | AC50: > 100 µM (inactive) |
| CCOC(=O)Cc1nc(NS(=O)(=O)c2c(C)cc(C)cc2C)c2ccccc2n1 | inactive | – |
| Cc1ccc(S(=O)(=O)NC[C@@H]2c3ccccc3CCN2C(=O)[C@@H]2CCCC[C@@H]2C(=O)O)c(C)c1 | inactive | – |
| O=S(=O)(Nc1nc(NCC2CCCCC2)nc2ccccc12)c1ccccc1 | inactive | – |
| O=C(O)C1CCCCC1C(=O)N1CCc2ccccc2[C@H]1C(=O)NC12CC3CC(CC(C3)C1)C2 (stereo partly drawn) | inactive | – |
| Cc1cc(C)c(S(=O)(=O)Nc2nc(NCCO)nc3ccccc23)c(C)c1 | inactive | – |
| Cc1cc(C)c(S(=O)(=O)Nc2cc(C(C(=O)OCc3ccccc3)C(=O)OCc3ccccc3)c(O)c3ccccc23)c(C)c1 | inactive | – |
| O=C(O)C1CCCCC1C(=O)N1CCCCC1CN1C(=O)c2ccccc2C1=O (stereo not drawn) | inactive | – |
| O=C(O)[C@H]1C2C=CC(C2)[C@H]1C(=O)N1CCc2ccccc2C1CN1C(=O)c2ccccc2C1=O (stereo partly drawn) | – | AC50: > 100 µM (inactive) |
| CCOC(=O)C(C(=O)OCC)c1cc(CNS(=O)(=O)c2ccc(C)cc2C)c2ccccc2n1 | inactive | – |
| O=C(O)[C@H]1CCCC[C@H]1C(=O)N1CCc2ccccc2C1 (racemic) | inactive | – |
| O=C(O)C1CCCCC1C(=O)N1CCc2ccccc2C1CN1Cc2ccccc2C1=O (stereo not drawn) | – | AC50: 23.6 µM |
| Cc1ccc(S(=O)(=O)NNc2nc(N3CC(O)CC3C(=O)O)nc3ccccc23)cc1 (stereo not drawn) | inactive | – |
| O=C(O)C1CCCCC1C(=O)N1CCc2ccccc2C1CN1C(=O)[C@H]2CCCC[C@H]2C1=O (stereo partly drawn) | – | AC50: > 100 µM (inactive) |
| O=C(O)[C@H]1CCCC[C@H]1C(=O)N1CCc2ccccc2[C@H]1CNS(=O)(=O)c1ccc([N+](=O)[O-])cc1 | inactive | – |
| Cc1ccc(S(=O)(=O)NC2=CC(=N[C@@H](C)C(=O)OC(C)(C)C)C(=O)c3ccccc32)c(C)c1 | inactive | – |
| Cc1cc(C)c(S(=O)(=O)Nc2cc(C(C(=O)OC(C)C)C(=O)C(F)(F)F)c(O)c3ccccc23)c(C)c1 (stereo not drawn) | – | AC50: 0.798 µM |
| CC(C)OC(=O)C(C(=O)C(F)(F)F)c1cc(NS(=O)(=O)c2ccccc2)c2ccccc2c1O (stereo not drawn) | – | AC50: 30 µM |
| O=C(NCCCN1CCOCC1)c1ccccc1C(=O)NC[C@@H]1c2ccccc2CCN1C(=O)C1CCCCC1C(=O)O (stereo partly drawn) | inactive | – |
| O=C(O)C1CCCCC1C(=O)N1CCc2ccccc2C1CN1C(=O)Cc2ccccc2C1=O (stereo not drawn) | – | AC50: > 100 µM (inactive) |
| COC(=O)CNc1nc(NS(=O)(=O)c2c(C)cc(C)cc2C)c2ccccc2n1 | inactive | – |

| Structure (SMILES) | activity change, negative = inhibition (at 50 µM (top of the series)) | other results |
| --- | --- | --- |
| O=C(O)Cc1ccccc1C(=O)N1CCc2ccccc2[C@H]1CN1C(=O)c2ccccc2C1=O | – | AC50: 23.6 µM |
| O=C(NCCc1ccccc1)c1ccccc1C(=O)NC[C@@H]1c2ccccc2CCN1C(=O)C1CCCCC1C(=O)O (stereo partly drawn) | – | AC50: > 100 µM (inactive) |
| C[C@@H](NC(=O)C1CCCC[C@H]1C(=O)O)c1ccccc1 (mixture of isomers) | inactive | – |
| Cc1ccc(S(=O)(=O)NC(=O)[C@@H]2c3ccccc3CCN2C(=O)[C@@H]2CCCC[C@@H]2C(=O)O)cc1 | inactive | AC50: > 100 µM (inactive) |
| C=CC(=O)NC[C@@H]1c2ccccc2CCN1C(=O)[C@@H]1CCCC[C@@H]1C(=O)O | inactive | – |
| O=C(O)C1CCCCC1C(=O)N1CCc2ccccc2C1c1ccccc1 (stereo not drawn) | inactive | – |
| Cc1ccc(S(=O)(=O)Nc2cc(C(C(=O)OC(C)C)C(=O)C(F)(F)F)c(O)c3ccccc23)cc1 (stereo not drawn) | – | AC50: 7.4 µM |
| Cc1ccc(S(=O)(=O)NNc2nc(NCC(N)=O)nc3ccccc23)cc1 | inactive | – |
| CC(C)CNc1nc(NS(=O)(=O)c2ccccc2)c2ccccc2n1 | inactive | – |
| CCOC(=O)C(C(=O)OCC)c1nc(NS(=O)(=O)c2c(C)cc(C)cc2C)c2ccccc2n1 | inactive | – |
| Cc1ccc(S(=O)(=O)NNc2nc(C(C(=O)OC(C)C)C(=O)C(F)(F)F)nc3ccccc23)cc1 (stereo not drawn) | inactive | – |
| COC(=O)C(C(=O)OC)c1cc(NS(=O)(=O)c2c(C)cc(C)cc2C)c2ccccc2c1O | – | AC50: 39.5 µM |
| COc1ccc(CCN=C2C=C(NS(=O)(=O)c3c(C)cc(C)cc3C)c3ccccc3C2=O)cc1 | inactive | – |
| Cc1cc(C)c(S(=O)(=O)Nc2ncnc3ccccc23)c(C)c1 | inactive | – |
| Cc1cc(C)c(S(=O)(=O)Nc2nc(C(C(=O)OC(C)C)C(=O)C(F)(F)F)nc3ccccc23)c(C)c1 (stereo not drawn) | inactive | – |
| O=C(O)[C@H]1CCCC[C@H]1C(=O)N1CCc2ccccc2[C@H]1CNc1nc(Cl)nc2ccccc12 | inactive | – |
| Cc1cc(C)c(S(=O)(=O)Nc2nc(N(C)C)nc3ccccc23)c(C)c1 | inactive | – |
| Cc1ccc(S(=O)(=O)Nc2cc(C(C(=O)OC(C)C)C(=O)C(F)(F)F)c(O)c3ccccc23)c(C)c1 (stereo not drawn) | – | AC50: 2.43 µM |
| Cc1ccccc1S(=O)(=O)Nc1cc(C(C(=O)OC(C)C)C(=O)C(F)(F)F)c(O)c2ccccc12 (stereo not drawn) | – | AC50: 3.56 µM |
| COc1ccccc1CCNC(=O)[C@@H]1c2ccccc2CCN1C(=O)C1CCCCC1C(=O)O (stereo partly drawn) | inactive | – |
| NC(=O)c1ccccc1C(=O)NC[C@@H]1c2ccccc2CCN1C(=O)[C@@H]1CCCC[C@@H]1C(=O)O | – | AC50: > 100 µM (inactive) |
| C[C@H](NC(=O)C1CCCC[C@H]1C(=O)O)c1ccccc1 (mixture of isomers) | inactive | – |
| CC(=O)Nc1cc(NS(=O)(=O)c2c(C)cc(C)cc2C)c2ccccc2c1O | – | AC50: 9.18 µM |

The next lines start with results.

| activity change, negative = inhibition (at 50 µM (top of the series)) | Structure (SMILES) | other results |
| --- | --- | --- |
| inactive | O=C(O)CCCC(=O)N1CCc2ccccc2C1CN1C(=O)c2ccccc2C1=O (stereo not drawn) | – |
| inactive | O=C1c2ccccc2C(=O)N1C[C@@H]1c2ccccc2CCN1C(=O)C1CCCCC1 | – |
| inactive | O=C(Cc1ccccc1)NC[C@@H]1c2ccccc2CCN1C(=O)[C@@H]1CCCC[C@@H]1C(=O)O | – |
| inactive | O=C(Oc1cc(CN2C(=O)c3ccccc3C2=O)c2ccccc2[n+]1[O-])c1cccc(Cl)c1 | – |
| inactive | O=C(O)CC(=O)N1CCc2ccccc2C1CN1C(=O)c2ccccc2C1=O (stereo not drawn) | – |
| inactive | O=C(O)/C=C\C(=O)N1CCc2ccccc2C1CN1C(=O)c2ccccc2C1=O (stereo not drawn) | – |
| inactive | O=C(O)[C@H]1CCCC[C@H]1C(=O)N1CCC2=C(CCCC2)C1CN1C(=O)c2ccccc2C1=O (stereo partly drawn) | AC50: > 100 µM (inactive) |
| inactive | O=C(O)[C@H]1CCCC[C@H]1C(=O)N1CCc2ccccc2[C@H]1CNS(=O)(=O)c1ccccc1 | – |
| inactive | O=C(O)[C@H]1CCCC[C@H]1C(=O)NC(CN1C(=O)c2ccccc2C1=O)c1ccccc1 (stereo partly drawn) | – |
| inactive | O=C(NC[C@@H]1c2ccccc2CCN1C(=O)[C@@H]1CCCC[C@@H]1C(=O)O)c1ccccc1CO | – |
| inactive | O=C(O)C1CCCCC1C(=O)NCC1c2ccccc2CCN1C(=O)Cc1ccccc1 (stereo not drawn) | – |
| inactive | NC(=O)[C@H]1CCCC[C@H]1C(=O)N1CCc2ccccc2[C@H]1CN1C(=O)c2ccccc2C1=O | – |
| inactive | O=C(O)[C@@H]1CCCN1C(=O)N1CCc2ccccc2[C@H]1CN1C(=O)c2ccccc2C1=O | – |
| inactive | O=C(O)[C@H]1CCCC[C@H]1C(=O)N1CCc2ccccc2C1CCN1C(=O)c2ccccc2C1=O (stereo partly drawn) | – |
| inactive | COC(=O)[C@@H]1CCCC[C@@H]1C(=O)N1CCc2ccccc2[C@@H]1CN1C(=O)c2ccccc2C1=O | – |
| inactive | O=C(O)C1CCCCC1C(=O)N1CCc2ccccc2[C@H]1C(=O)NCCc1ccccc1 (stereo partly drawn) | – |
| inactive | O=C(NC[C@@H]1c2ccccc2CCN1C(=O)[C@@H]1CCCC[C@@H]1C(=O)O)c1ccc(CCl)cc1 | – |
| inactive | COC(=O)C1CCCCC1C(=O)N1CCc2ccccc2C1CN1C(=O)c2ccccc2C1=O (stereo not drawn) | – |
| inactive | O=C(O)C1CCCCC1C(=O)Nc1ccccc1CN1C(=O)c2ccccc2C1=O (stereo not drawn) | – |
| inactive | O=C(NC[C@@H]1c2ccccc2CCN1C(=O)[C@@H]1CCCC[C@@H]1C(=O)O)c1ccccc1 | – |
| inactive | COC(=O)[C@H]1CCCC[C@H]1C(=O)N1CCc2ccccc2[C@H]1CN1C(=O)c2ccccc2C1=O | – |
| inactive | O=C1c2ccccc2C(=O)N1C[C@H]1NCCc2ccccc21 | – |
| inactive | O=C(NC[C@@H]1c2ccccc2CCN1C(=O)[C@@H]1CCCC[C@@H]1C(=O)O)OCC1c2ccccc2-c2ccccc21 | – |
| inactive | O=C(O)c1ccccc1C(=O)N1CCc2ccccc2C1CN1C(=O)c2ccccc2C1=O (stereo not drawn) | – |
| inactive | O=C1c2ccccc2C(=O)N1C[C@@H]1c2ccccc2CCN1C(=O)OCc1ccccc1 | – |
| inactive | O=C(O)CCC(=O)N1CCc2ccccc2C1CN1C(=O)c2ccccc2C1=O (stereo not drawn) | – |
| inactive | O=C1c2ccccc2C(=O)N1CC1=NCCc2ccccc21 | – |
| inactive | CCOC(=O)C(C(=O)OCC)c1cc(CN2C(=O)c3ccccc3C2=O)c2ccccc2n1 | – |
| inactive | COC(=O)[C@@H]1CCCC[C@@H]1C(=O)N1CCc2ccccc2[C@H]1CN1C(=O)c2ccccc2C1=O | – |
